Results on 57 compounds are retold here after ChEMBL document CHEMBL3217623, “Tacrine-mefenamic acid hybrids for inhibition of acetylcholinesterase” (Medchemcomm, 2011).

The source made the active and inactive calls. The calls are words filed in the database; no cut-off is given here.

Assay [1] deals with T1, Acetylcholinesterase (Torpedo californica, UniProt P04058). Briefly: Inhibition of Torpedo californica […] AChE using acetylthiocholine/DTNB as substrate preincubated for 10 mins followed by substrate addition measured every 30 secs for 30 mins by Ellmans method. Set-up: species or system Tetronarce californica. On the technique in general: Ellman's reagent forms a yellow product with free thiols.
T1 sequence (P04058 whole entry): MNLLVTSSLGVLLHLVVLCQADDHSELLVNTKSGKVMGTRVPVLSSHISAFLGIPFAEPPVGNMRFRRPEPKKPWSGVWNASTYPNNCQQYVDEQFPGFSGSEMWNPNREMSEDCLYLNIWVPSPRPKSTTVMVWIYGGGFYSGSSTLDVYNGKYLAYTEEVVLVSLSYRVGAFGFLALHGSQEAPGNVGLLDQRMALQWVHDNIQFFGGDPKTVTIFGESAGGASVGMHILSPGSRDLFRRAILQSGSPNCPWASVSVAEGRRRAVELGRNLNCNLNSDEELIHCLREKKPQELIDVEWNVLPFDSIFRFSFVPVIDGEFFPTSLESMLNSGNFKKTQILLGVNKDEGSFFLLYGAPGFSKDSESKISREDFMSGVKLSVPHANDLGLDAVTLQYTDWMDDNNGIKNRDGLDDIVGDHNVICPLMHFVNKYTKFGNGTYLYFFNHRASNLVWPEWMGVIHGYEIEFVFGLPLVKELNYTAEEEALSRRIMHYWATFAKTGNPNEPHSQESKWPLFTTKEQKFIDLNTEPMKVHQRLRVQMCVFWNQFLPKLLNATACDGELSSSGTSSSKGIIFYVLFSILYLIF

Assay [2] has as its target T1, Acetylcholinesterase. Briefly: Inhibition of Torpedo californica […] AChE using acetylthiocholine/DTNB as substrate assessed as ROS-induced enzyme inactivation preincubated for 10 mins followed by substrate addition measured every 30 secs for 20 mins in presence of horseradish peroxidase and H2O2. Also on record: species or system Tetronarce californica.
Assay [3] has as its target Acetylcholinesterase (Torpedo californica) (UniProt P04058). Briefly: Non-competitive inhibition of Torpedo californica […] AChE using acetylthiocholine as substrate at 0.2 to 5 uM measured for 2 mins by Lineweaver-Burk plot analysis. The settings on record: Tetronarce californica.

Sequence of Acetylcholinesterase (Torpedo californica) (P04058 22-564 limits assumed): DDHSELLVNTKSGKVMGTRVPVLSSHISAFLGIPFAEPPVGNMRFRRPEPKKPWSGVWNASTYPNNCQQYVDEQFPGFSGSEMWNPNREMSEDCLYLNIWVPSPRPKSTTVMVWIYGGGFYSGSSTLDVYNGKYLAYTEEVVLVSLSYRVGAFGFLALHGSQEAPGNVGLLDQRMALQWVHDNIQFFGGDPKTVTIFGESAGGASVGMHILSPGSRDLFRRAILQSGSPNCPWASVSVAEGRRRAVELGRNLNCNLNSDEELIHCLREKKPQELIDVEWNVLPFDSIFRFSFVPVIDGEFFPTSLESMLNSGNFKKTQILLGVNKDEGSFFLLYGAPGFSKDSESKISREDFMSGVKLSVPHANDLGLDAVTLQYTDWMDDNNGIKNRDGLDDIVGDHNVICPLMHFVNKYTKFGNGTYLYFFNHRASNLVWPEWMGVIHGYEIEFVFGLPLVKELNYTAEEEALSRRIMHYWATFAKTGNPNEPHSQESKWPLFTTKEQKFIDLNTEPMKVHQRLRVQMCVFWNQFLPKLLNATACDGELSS

The term IC50 denotes the midpoint of a concentration-inhibition curve. `Cc1cccc(Nc2ccccc2C(=O)NCCC(=O)NCCCCCCCCNc2c3c(nc4cc(Cl)ccc24)CCCC3)c1C`: the IC50 against Acetylcholinesterase [1] came out at 0.0183 µM; on Acetylcholinesterase [2] it was 4.97 nM.

Take `Cc1cccc(Nc2ccccc2C(=O)NCCCC(=O)NCCCCCCNc2c3c(nc4cc(Cl)ccc24)CCCC3)c1C`: the concentration for half-maximal inhibition (IC50) at Acetylcholinesterase [1] was 0.0417 µM; at Acetylcholinesterase [2], 15.6 nM. `Cc1cccc(Nc2ccccc2C(=O)NCCCCCC(=O)NCCCCNc2c3c(nc4cc(Cl)ccc24)CCCC3)c1C`: the IC50 against Acetylcholinesterase [1] was 0.0374 µM; on Acetylcholinesterase [2], 0.299 nM. As to `Cc1cccc(Nc2ccccc2C(=O)NCCCCCC(=O)NCCCCCCCCNc2c3c(nc4cc(Cl)ccc24)CCCC3)c1C`, the IC50 on Acetylcholinesterase [1] was found to be 0.0801 µM; on Acetylcholinesterase [2] it was 8.67 nM.

As to `Cc1cccc(Nc2ccccc2C(=O)NCCC(=O)NCCCCCCCNc2c3c(nc4ccccc24)CCCC3)c1C`, the IC50 amounted to 0.0139 µM against Acetylcholinesterase [1] and 1.02 nM at Acetylcholinesterase [2]. On to `Cc1cccc(Nc2ccccc2C(=O)NCCC(=O)NCCCCNc2c3c(nc4cc(Cl)ccc24)CCCC3)c1C`, for which the IC50 is 2.47 µM against Acetylcholinesterase [1] and 33 nM on Acetylcholinesterase [2]. At Acetylcholinesterase [1], `CN(C)C(=O)Oc1ccc[n+](C)c1` [PYRIDOSTIGMINE] showed an IC50 of 0.082 µM. With `Cc1cccc(Nc2ccccc2C(=O)NCCC(=O)NCCCNc2c3c(nc4cc(Cl)ccc24)CCCC3)c1C`, the IC50 against Acetylcholinesterase [1] was found to be 0.0203 µM; at Acetylcholinesterase [2], 21.3 nM. On to `Cc1cccc(Nc2ccccc2C(=O)NCCCC(=O)NCCCCCCCNc2c3c(nc4cc(Cl)ccc24)CCCC3)c1C`, for which the IC50 stood at 0.00791 µM against Acetylcholinesterase [1] and 6.55 nM at Acetylcholinesterase [2]. As for `Cc1cccc(Nc2ccccc2C(=O)NCCCC(=O)NCCCNc2c3c(nc4cc(Cl)ccc24)CCCC3)c1C`, the IC50 was found to be 0.00713 µM against Acetylcholinesterase [1] and 1.03 nM at Acetylcholinesterase [2].

For the compound `Cc1cccc(Nc2ccccc2C(=O)NCC(=O)NCCCCCCNc2c3c(nc4ccccc24)CCCC3)c1C`, the 50% inhibitory concentration (IC50) at Acetylcholinesterase [1] is 0.0183 µM; at Acetylcholinesterase [2], 54.8 nM.

Regarding `Cc1cccc(Nc2ccccc2C(=O)NCCCC(=O)NCCCCCCNc2c3c(nc4ccccc24)CCCC3)c1C`, the IC50 stood at 0.195 µM on Acetylcholinesterase [1] and 29.9 nM on Acetylcholinesterase [2]. Consider `Cc1cccc(Nc2ccccc2C(=O)NCCC(=O)NCCCCCCCCNc2c3c(nc4ccccc24)CCCC3)c1C`, for which the IC50 amounted to 0.00858 µM at Acetylcholinesterase [1] and 4.07 nM at Acetylcholinesterase [2].

Take `Cc1cccc(Nc2ccccc2C(=O)NCCCCCCCCCNc2c3c(nc4cc(Cl)ccc24)CCCC3)c1C`: the IC50 against Acetylcholinesterase [1] is 0.00694 µM; on Acetylcholinesterase [2], 6.72 nM.

With `Cc1cccc(Nc2ccccc2C(=O)NCCCC(=O)NCCCNc2c3c(nc4ccccc24)CCCC3)c1C`, the values for the IC50 on Acetylcholinesterase [1] and at Acetylcholinesterase [2] were 3.73 µM and 23 nM, respectively. With `Cc1cccc(Nc2ccccc2C(=O)NCCCCCC(=O)NCCCCCCNc2c3c(nc4cc(Cl)ccc24)CCCC3)c1C`, the IC50 against Acetylcholinesterase [1] is 0.00294 µM; on Acetylcholinesterase [2], 7.39 nM. On to `Cc1cccc(Nc2ccccc2C(=O)NCCCCCC(=O)NCCCCCCCCNc2c3c(nc4ccccc24)CCCC3)c1C`, for which the IC50 against Acetylcholinesterase [1] was 0.0187 µM; at Acetylcholinesterase [2], 6.26 nM. As for `Cc1cccc(Nc2ccccc2C(=O)NCC(=O)NCCCCCCCCNc2c3c(nc4cc(Cl)ccc24)CCCC3)c1C`, the IC50 against Acetylcholinesterase [1] was determined as 0.0398 µM; at Acetylcholinesterase [2], 18.1 nM. Regarding `Cc1cccc(Nc2ccccc2C(=O)NCCCCCC(=O)NCCCCNc2c3c(nc4ccccc24)CCCC3)c1C`, the IC50 at Acetylcholinesterase [1] was 1.86 µM; at Acetylcholinesterase [2], 34 nM. Consider `Cc1cccc(Nc2ccccc2C(=O)NCC(=O)NCCCCCCCNc2c3c(nc4ccccc24)CCCC3)c1C`, for which the half-maximal inhibitory concentration (IC50) stood at 0.00555 µM on Acetylcholinesterase [1] and 15.3 nM on Acetylcholinesterase [2].

For the compound `Cc1cccc(Nc2ccccc2C(=O)NCC(=O)NCCCCCCCCNc2c3c(nc4ccccc24)CCCC3)c1C`, the IC50 against Acetylcholinesterase [1] amounted to 0.0033 µM; on Acetylcholinesterase [2] it was 17.2 nM. On the same counts, the results for `Cc1cccc(Nc2ccccc2C(=O)NCCCC(=O)NCCCCNc2c3c(nc4ccccc24)CCCC3)c1C` are 0.0897 µM and 14.6 nM. With `Cc1cccc(Nc2ccccc2C(=O)NCCCCCCCCCCCCNc2c3c(nc4cc(Cl)ccc24)CCCC3)c1C`, the IC50 on Acetylcholinesterase [1] was found to be 2.36 µM; on Acetylcholinesterase [2], 16.2 nM. In the case of `Cc1cccc(Nc2ccccc2C(=O)NCCCCCCCCCCCCNc2c3c(nc4ccccc24)CCCC3)c1C`, the figures for the IC50 against Acetylcholinesterase [1] and at Acetylcholinesterase [2] were 0.0509 µM and 6.94 nM, respectively. Consider `Cc1cccc(Nc2ccccc2C(=O)NCC(=O)NCCCCCCNc2c3c(nc4cc(Cl)ccc24)CCCC3)c1C`, for which the IC50 on Acetylcholinesterase [1] was found to be 0.00765 µM; on Acetylcholinesterase [2], 3.46 nM. Consider `Cc1cccc(Nc2ccccc2C(=O)NCCCCCCNc2c3c(nc4cc(Cl)ccc24)CCCC3)c1C`, for which the IC50 is 7.23 µM at Acetylcholinesterase [1] and 1.02 nM at Acetylcholinesterase [2].

As for `Cc1cccc(Nc2ccccc2C(=O)NCCCCCC(=O)NCCCNc2c3c(nc4ccccc24)CCCC3)c1C`, the figures for the IC50 against Acetylcholinesterase [1] and at Acetylcholinesterase [2] were 0.811 µM and 20.2 nM, respectively.

As to `Cc1cccc(Nc2ccccc2C(=O)NCCCCCC(=O)NCCCCCCNc2c3c(nc4ccccc24)CCCC3)c1C`, the half-inhibitory concentration (IC50) was 1.44 µM on Acetylcholinesterase [1] and 34 nM on Acetylcholinesterase [2].

On to `Cc1cccc(Nc2ccccc2C(=O)NCCCCCCCNc2c3c(nc4ccccc24)CCCC3)c1C`, for which the IC50 against Acetylcholinesterase [1] was 0.00139 µM; on Acetylcholinesterase [2] it was 25.2 nM. In the same order, the values of `Cc1cccc(Nc2ccccc2C(=O)NCC(=O)NCCCNc2c3c(nc4ccccc24)CCCC3)c1C` are 0.0873 µM and 47.5 nM. In the same order, the values of `Cc1cccc(Nc2ccccc2C(=O)NCCCC(=O)NCCCCCCCCNc2c3c(nc4cc(Cl)ccc24)CCCC3)c1C` are 0.017 µM and 6.59 nM.

In the case of `Cc1cccc(Nc2ccccc2C(=O)NCCCCCCCCCCNc2c3c(nc4ccccc24)CCCC3)c1C`, in assay [3], the inhibition entry is “Active”. Also, the IC50 against Acetylcholinesterase [1] turned out to be 0.385 µM; at Acetylcholinesterase [2], 0.908 nM. Take `Cc1cccc(Nc2ccccc2C(=O)O)c1C` [MEFENAMIC ACID]: the IC50 was > 1250 µM at Acetylcholinesterase [1] and 6120 nM at Acetylcholinesterase [2]. Take `Cc1cccc(Nc2ccccc2C(=O)NCCCCCC(=O)NCCCNc2c3c(nc4cc(Cl)ccc24)CCCC3)c1C`: the values for the 50% inhibitory concentration (IC50) against Acetylcholinesterase [1] and on Acetylcholinesterase [2] were 0.00165 µM and 7.85 nM, respectively. With `Cc1cccc(Nc2ccccc2C(=O)NCC(=O)NCCCCNc2c3c(nc4ccccc24)CCCC3)c1C`, the 50% inhibitory concentration (IC50) at Acetylcholinesterase [1] worked out at 0.262 µM; at Acetylcholinesterase [2] it was 53.6 nM.

`Cc1cccc(Nc2ccccc2C(=O)NCCCCCCCNc2c3c(nc4cc(Cl)ccc24)CCCC3)c1C`: the IC50 at Acetylcholinesterase [1] stood at 1.38 µM; at Acetylcholinesterase [2] it was 29.8 nM. `CN(C)C(=O)Oc1cccc([N+](C)(C)C)c1` [NEOSTIGMINE] displayed an IC50 against Acetylcholinesterase [1] of 0.0046 µM. Turning to `Cc1cccc(Nc2ccccc2C(=O)NCCC(=O)NCCCNc2c3c(nc4ccccc24)CCCC3)c1C`, the IC50 was 3.8 µM at Acetylcholinesterase [1] and 7.92 nM at Acetylcholinesterase [2]. For the compound `Cc1cccc(Nc2ccccc2C(=O)NCCCCCC(=O)NCCCCCCCNc2c3c(nc4cc(Cl)ccc24)CCCC3)c1C`, the IC50 was determined as 0.0111 µM against Acetylcholinesterase [1] and 13.4 nM at Acetylcholinesterase [2]. On to `Cc1cccc(Nc2ccccc2C(=O)NCCCCCC(=O)NCCCCCCCNc2c3c(nc4ccccc24)CCCC3)c1C`, for which the half-maximal inhibitory concentration (IC50) was found to be 0.0036 µM against Acetylcholinesterase [1] and 3.66 nM at Acetylcholinesterase [2]. Regarding `Cc1cccc(Nc2ccccc2C(=O)NCC(=O)NCCCCCCCNc2c3c(nc4cc(Cl)ccc24)CCCC3)c1C`, the values for the concentration for half-maximal inhibition (IC50) against Acetylcholinesterase [1] and on Acetylcholinesterase [2] were 0.000418 µM and 0.009 nM, respectively.

As to `Cc1cccc(Nc2ccccc2C(=O)NCCCC(=O)NCCCCCCCCNc2c3c(nc4ccccc24)CCCC3)c1C`, the IC50 was 0.0174 µM at Acetylcholinesterase [1] and 14.6 nM on Acetylcholinesterase [2]. On to `Cc1cccc(Nc2ccccc2C(=O)NCCCC(=O)NCCCCNc2c3c(nc4cc(Cl)ccc24)CCCC3)c1C`, for which the IC50 on Acetylcholinesterase [1] is 0.0136 µM; on Acetylcholinesterase [2], 12.4 nM. On to `Cc1cccc(Nc2ccccc2C(=O)NCCCC(=O)NCCCCCCCNc2c3c(nc4ccccc24)CCCC3)c1C`, for which the 50% inhibitory concentration (IC50) is 0.00809 µM against Acetylcholinesterase [1] and 44.6 nM at Acetylcholinesterase [2]. As to `Cc1cccc(Nc2ccccc2C(=O)NCCCCCCCCNc2c3c(nc4ccccc24)CCCC3)c1C`, the IC50 was found to be 0.0755 µM against Acetylcholinesterase [1] and 0.045 nM on Acetylcholinesterase [2]. With `Cc1cccc(Nc2ccccc2C(=O)NCCCCCCCCCNc2c3c(nc4ccccc24)CCCC3)c1C`, the IC50 came out at 0.00154 µM at Acetylcholinesterase [1] and 15.1 nM at Acetylcholinesterase [2]. On to `Cc1cccc(Nc2ccccc2C(=O)NCCCCCCCCCCNc2c3c(nc4cc(Cl)ccc24)CCCC3)c1C`, for which the figures for the IC50 against Acetylcholinesterase [1] and at Acetylcholinesterase [2] were 0.000776 µM and 1.85 nM, respectively. `Clc1ccc2c(Cl)c3c(nc2c1)CCCC3`: at Acetylcholinesterase [1], the IC50 was > 50 µM. Take `Cc1cccc(Nc2ccccc2C(=O)NCCCCCCNc2c3c(nc4ccccc24)CCCC3)c1C`: the half-maximal inhibitory concentration (IC50) against Acetylcholinesterase [1] came to 0.00224 µM; on Acetylcholinesterase [2], 0.129 nM. Take `Cc1cccc(Nc2ccccc2C(=O)NCCC(=O)NCCCCCCNc2c3c(nc4ccccc24)CCCC3)c1C`: the half-inhibitory concentration (IC50) on Acetylcholinesterase [1] turned out to be 0.985 µM; on Acetylcholinesterase [2], 40.2 nM. On the same counts, the results for `Cc1cccc(Nc2ccccc2C(=O)NCCC(=O)NCCCCCCCNc2c3c(nc4cc(Cl)ccc24)CCCC3)c1C` are 0.00667 µM and 10 nM. Take `Cc1cccc(Nc2ccccc2C(=O)NCC(=O)NCCCNc2c3c(nc4cc(Cl)ccc24)CCCC3)c1C`: the IC50 against Acetylcholinesterase [1] was found to be 0.0281 µM; on Acetylcholinesterase [2] it was 3.1 nM.

On to `Cc1cccc(Nc2ccccc2C(=O)NCCC(=O)NCCCCNc2c3c(nc4ccccc24)CCCC3)c1C`, for which the values for the IC50 against Acetylcholinesterase [1] and at Acetylcholinesterase [2] were 0.426 µM and 2.43 nM, respectively.

Consider `Cc1cccc(Nc2ccccc2C(=O)NCCC(=O)NCCCCCCNc2c3c(nc4cc(Cl)ccc24)CCCC3)c1C`, for which the concentration for half-maximal inhibition (IC50) against Acetylcholinesterase [1] was 0.00114 µM; on Acetylcholinesterase [2] it was 2.96 nM.

Take `Cc1cccc(Nc2ccccc2C(=O)NCCCCCCCCNc2c3c(nc4cc(Cl)ccc24)CCCC3)c1C`: the concentration for half-maximal inhibition (IC50) is 0.000495 µM against Acetylcholinesterase [1] and 1.49 nM on Acetylcholinesterase [2]. On to `Clc1c2c(nc3ccccc13)CCCC2`, for which the IC50 against Acetylcholinesterase [1] was > 25 µM; on Acetylcholinesterase [2], 83.9 nM. In the case of `Cc1cccc(Nc2ccccc2C(=O)NCC(=O)NCCCCNc2c3c(nc4cc(Cl)ccc24)CCCC3)c1C`, the half-maximal inhibitory concentration (IC50) was 0.156 µM at Acetylcholinesterase [1] and 89.4 nM on Acetylcholinesterase [2].
